From article PMC4090575, “An In Vivo Microdialysis Study of FLZ Penetration through the Blood-Brain Barrier in Normal and 6-Hydroxydopamine Induced Parkinson's Disease Model Rats” (BioMed Research International, 2014)
Read-outs that look alike come from different tables or passages of the source. Each block holds one compound with its values, some of them ahead of it.

Tests used:
[1] = set-up: method as in PMID 22472186; settings: cited from earlier work
plasma proteins = system: plasma proteins; set-up: method as in Our previous work; settings: ref Our previous work; cited from earlier work
[2] = stated with the material supplied; source not given; cited from earlier work
[3] = Stability of FLZ in UPLC-MS/MS method validation; type: physicochemical; settings: during preparation, after three freeze/thaw cycles and after storing at −80°C for 45 days
Method: Stock solutions of FLZ and IS were prepared separately in methanol at a target concentration of 1 mg/mL and then diluted with methanol to create working solutions of FLZ at concentrations of 1, 3, 10, 30, 100, 300, 1000, 1500, 2500, 5000, 10000, and 15000 ng/mL and IS at concentrations of 10 ng/mL. All solutions were stored in glass tubes at 4°C for less than 2 months until analysis and were protected from light. FLZ calibration standards (0.1, 0.3, 1, 3, 10, 30, 100, 150, 250, 500, 1000, and 1500 ng/mL) were prepared by spiking the blank perfusate with the appropriate working standard solution of FLZ. Quality control samples were prepared using the working solutions from the same stock solution (0.1, 0.3, 1, 10, 100, and 1000 ng/mL), thereby representing the entire range of concentrations.
Assay validation to meet the acceptance criteria was performed according to the bioanalytical method validation guideline (European Medicines Agency Guideline on Bioanalytical Method Validation, July 21, 2011). The assay was validated in terms of specificity, matrix effect, recovery, calibration curve, precision, accuracy (intra- and interday), lower limit of quantification (LLOQ), and stability (autosampler, freeze-thaw, and long-term).

[4] = In vivo microdialysis pharmacokinetics of free FLZ in blood and brain dialysates, with or without zosuquidar·3HCl pretreatment; set-up: species or system rat; settings: for AUC, Brain / AUC: n = 3; for AUC / clearance / half-life / unbound brain-to-blood AUC ratio (Kp,uu): rat, 35 mg/kg; for clearance: read-out: CLz, Blood (converted); for unbound brain-to-blood AUC ratio (Kp,uu): brain dialysate / blood dialysate, BBB penetration ratio of free FLZ, read-out: Ri (AUCbrain/AUCblood)
Method: (§1) Rats were divided into four groups (n = 3 animals per group): three normal rats treated with FLZ only (FLZ only-N); three PD rats treated with FLZ only (FLZ only-PD); three normal rats treated with FLZ plus zosuquidar·3HCl (FLZ + ZOSUQ-N); and three PD rats treated with FLZ plus zosuquidar·3HCl (FLZ + ZOSUQ-PD). The system was equilibrated for 1 h after surgery. FLZ was dissolved in a mixture of dimethyl sulfoxide, polyethylene glycol 400, and sodium chloride injection (1 : 4 : 5 (v/v/v)). All rats received FLZ (35 mg/kg) via intravenous injection into the tail vein (with or without pretreatment with zosuquidar·3HCl). Rats in the FLZ + ZOSUQ-N and FLZ + ZOSUQ-PD groups received an i.v. injection of zosuquidar·3HCl (20 mg/kg, dissolved in 20% ethanol-saline) 10 min before FLZ administration. The dose, route of administration, and timing of P-gp inhibition were based on those described in earlier studies. Microdialysis samples were collected from the striatum and the jugular vein at 15 min intervals for 1 h before (blanks) and for 4 h after FLZ administration. The samples were stored at −80°C until they were analysed by ultraperformance liquid chromatography-tandem mass spectrometry (UPLC-MS/MS). At the end of the experiment, the rats were decapitated and the brains were removed for histological verification of probe placement. Data were discarded if the probe placement was outside the target area.
(§2) The microdialysis system comprised a CMA 470 refrigerated fraction collector, a CMA 402 syringe pump, and fluorinated ethylene propylene tubing (CMA, Solna, Sweden). CMA microdialysis probes for the blood (CMA 20, 10 mm in length) and brain (CMA 12, 4 mm in length) were also used. Animals were anaesthetized with urethane (1.4 g/kg, i.p.) before surgery and remained anesthetized throughout the experimental period. The body temperature of each rat was maintained at 37°C until the end of the experiment using a heating pad. The blood microdialysis probe was positioned within the jugular vein toward the right atrium and sutured to the surrounding muscle to prevent it from slipping out. The probe was then perfused with heparinized ringer's solution (1500 U/mL) for 15 min. The microdialysis guide cannula was implanted into the right striatum zone (anterior-posterior: 0.2 mm; lateral: 3.0 mm; dorsal-ventral: 3.5 mm from bregma) and fixed to the skull with stainless steel screws and dental acrylic. The brain microdialysis probe was inserted through the guide cannula.
(§3) In the pilot microdialysis experiment, ringer's solution was perfused through the probe at a flow rate of 1.5 μL/min and the dialysate samples were collected every 15 min from 90 min before until 6 h after dosing with FLZ. In all the other groups, the probes were perfused with ringer's solution containing 4% BSA, with the flow rate set at 1.0 μL/min.
(§4) The relative recovery of FLZ using the microdialysis probe was estimated using a retrodialysis method after sample collection and clearing overnight until there is no drug in the tissue and blood. Perfusates containing FLZ (20 ng/mL for the brain and 200 ng/mL for the blood) were passed separately into the brain and blood through the microdialysis probes at a constant flow rate of 1 μL/min. After a 1-hour stabilization period, the dialysates were collected at 15 min intervals for 1 hour. The concentrations of FLZ in the dialysate (C out) and perfusate (C in) were analysed by UPLC-MS/MS as described in Section 2.7. Recovery (R) was expressed by the following equation: R = 1 − (C out/C in).
(§5) Pharmacokinetic parameters were calculated from the observed data by noncompartmental analysis using the Drug and Statistics for Windows software package (DAS, version 2.0, Chinese Pharmacological Association, China). […]

P-gp = assay: as above; set-up: species or system rat; settings: rat, iv, with zosuquidar·3HCl 20 mg/kg i.v. 10 min before FLZ; for AUC / clearance / half-life: 35 mg/kg; for AUC: zosuquidar·3HCl 20 mg/kg i.v. 10 min before FLZ 35 mg/kg i.v., n = 3; for clearance / half-life / unbound brain-to-blood AUC ratio (Kp,uu): zosuquidar·3HCl 20 mg/kg i.v. pretreatment, FLZ 35 mg/kg i.v.; for clearance: read-out: CLz, Blood (converted); for unbound brain-to-blood AUC ratio (Kp,uu): brain dialysate / blood dialysate, read-out: Ri (AUCbrain/AUCblood)
Method: as §1, §2, §3, §4, §5

[5] = system: P-gp mediated multidrug resistance; set-up: method as in PMID 9381979; settings: high therapeutic index; cited from earlier work
[6] = FLZ + ZOSUQ-N group relative to FLZ only-N group, normal rats
[7] = FLZ + ZOSUQ-PD group relative to FLZ only-PD group, PD rats
[8] = blood (jugular vein) dialysate, FLZ + ZOSUQ-N: normal rats, blood dialysate
[9] = blood (jugular vein) dialysate, FLZ + ZOSUQ-PD: 6-OHDA PD rats, blood dialysate

stability of FLZ [3]: remained stable
reduction in FLZ blood dialysate AUC ([4]; FLZ + ZOSUQ-N group compared with FLZ only-N group, normal rats, not statistically significant): 34%
increase in brain : blood free FLZ AUC ratio [4, 6]: 3 fold
increase in mean brain dialysate FLZ AUC [4, 6]: 123%
AUC, Brain ([4]; FLZ + ZOSUQ-N: normal rats, zosuquidar·3HCl 20 mg/kg i.v. pretreatment, FLZ 35 mg/kg i.v., brain dialysate): 324 ± 46∗∗ μg/L × h
decrease in FLZ blood dialysate AUC [4, 7]: 56%
increase in FLZ brain dialysate AUC [4, 7]: 130%
increase in brain : blood free FLZ AUC ratio [4, 7]: 4 fold
AUC, Brain ([4]; FLZ + ZOSUQ-PD: 6-OHDA PD rats, zosuquidar·3HCl 20 mg/kg i.v. pretreatment, FLZ 35 mg/kg i.v., brain dialysate): 333 ± 103∗ μg/L × h
AUC, Brain ([4]; FLZ only-N: normal rats, FLZ 35 mg/kg i.v., brain (striatum) dialysate): 145 ± 25 µg·h/L
decrease in brain : blood free FLZ AUC ratio ([4]; FLZ only-PD group relative to FLZ only-N group, not statistically significant): 20%
AUC, Brain ([4]; FLZ only-PD: 6-OHDA PD rats, FLZ 35 mg/kg i.v., brain (striatum) dialysate): 145 ± 18 µg·h/L
AUC ([4]; blood (jugular vein) dialysate, iv, FLZ only-N: normal rats, FLZ 35 mg/kg i.v., blood dialysate, free FLZ): 2350 ± 39 ng·h/mL
clearance ([4]; blood (jugular vein) dialysate, iv, FLZ only-N: normal rats, FLZ 35 mg/kg i.v., blood dialysate): 248 mL/min/kg
half-life ([4]; blood (jugular vein) dialysate, iv, FLZ only-N: normal rats, FLZ 35 mg/kg i.v., blood dialysate, read-out: t 1/2, Blood (converted)): 1.21 ± 0.22 h
AUC ([4]; blood (jugular vein) dialysate, iv, FLZ only-PD: 6-OHDA PD rats, FLZ 35 mg/kg i.v., blood dialysate, free FLZ): 3070 ± 621 ng·h/mL
clearance ([4]; blood (jugular vein) dialysate, iv, FLZ only-PD: 6-OHDA PD rats, FLZ 35 mg/kg i.v., blood dialysate): 195 mL/min/kg
half-life ([4]; blood (jugular vein) dialysate, iv, FLZ only-PD: 6-OHDA PD rats, FLZ 35 mg/kg i.v., blood dialysate, read-out: t 1/2, Blood (converted)): 1.34 ± 0.03 h
half-life ([4]; blood dialysate and brain dialysate, intravenous, present study, both in the blood and brain, free FLZ, read-out: t 1/2 of FLZ (converted)): ~1.1 h
half-life ([4]; brain (striatum) dialysate, iv, FLZ only-N: normal rats, FLZ 35 mg/kg i.v., brain dialysate, read-out: t 1/2, Brain (converted)): 1.15 ± 0.57 h
half-life ([4]; brain (striatum) dialysate, iv, FLZ only-PD: 6-OHDA PD rats, FLZ 35 mg/kg i.v., brain dialysate, read-out: t 1/2, Brain (converted)): 1.31 ± 0.29 h
unbound brain-to-blood AUC ratio (Kp,uu) ([4]; iv, FLZ only-N: normal rats, FLZ 35 mg/kg i.v.): 0.0617 ± 0.0105
unbound brain-to-blood AUC ratio (Kp,uu) ([4]; iv, FLZ only-PD: 6-OHDA PD rats, FLZ 35 mg/kg i.v.): 0.0492 ± 0.0158
AUC (P-gp; [8]): 1560 ± 881 ng·h/mL
clearance (P-gp; [8]): 473 mL/min/kg
half-life (P-gp; blood (jugular vein) dialysate, FLZ + ZOSUQ-N: normal rats, blood dialysate, read-out: t 1/2, Blood (converted)): 1.11 ± 0.13 h
AUC (P-gp; [9]): 1330 ± 259 ng·h/mL
clearance (P-gp; [9]): 447 mL/min/kg
half-life (P-gp; blood (jugular vein) dialysate, FLZ + ZOSUQ-PD: 6-OHDA PD rats, blood dialysate, read-out: t 1/2, Blood (converted)): 1.43 ± 0.25 h
half-life (P-gp; brain (striatum) dialysate, FLZ + ZOSUQ-N: normal rats, brain dialysate, read-out: t 1/2, Brain (converted)): 1.04 ± 0.43 h
half-life (P-gp; brain (striatum) dialysate, FLZ + ZOSUQ-PD: 6-OHDA PD rats, brain dialysate, read-out: t 1/2, Brain (converted)): 1.14 ± 0.27 h
unbound brain-to-blood AUC ratio (Kp,uu) (P-gp; FLZ + ZOSUQ-N: normal rats): 0.248 ± 0.114
unbound brain-to-blood AUC ratio (Kp,uu) (P-gp; FLZ + ZOSUQ-PD: 6-OHDA PD rats): 0.246 ± 0.027
SMILES: COc1ccc(OC)c(C(=Cc2ccc(O)c(OC)c2)C(=O)NCCc2ccc(O)cc2)c1 [FLZ, N-[2-(4-hydroxy-phenyl)-ethyl]-2-(2,5-dimethoxy-phenyl)-3-(3-methoxy-4-hydroxy-phenyl)-acrylamide]
increase in FLZ brain-to-plasma ratio with zosuquidar·3HCl pretreatment versus control ([1]; 0.25 min postdose, brain homogenate-to-plasma concentration ratio): about 3.1 fold
t 1/2 of FLZ reported previously [1]: about 0.5 h
binding rate of FLZ to plasma proteins (plasma proteins): about 90%
lipophilicity [2]: lipophilic
pKa [2]: 13.75 ± 0.46
water solubility [2]: poorly water-soluble

SMILES: Cl.Cl.Cl.O[C@@H](COc1cccc2ncccc12)CN1CCN([C@@H]2c3ccccc3[C@@H]3[C@H](c4ccccc42)C3(F)F)CC1 [Zosuquidar·3HCl, zosuquidar trihydrochloride]
active doses in in vivo antitumor efficacy experiments [5]: 1 to 30 mg/kg
